Patent publication US20240217979A1, “GluN2 Subunit Selective Antagonists of the N-Methyl-D-Aspartate Receptors” (Emory University, priority 2021, published 2024)

Key:
Assay type in all cases: cell-based
rat GluN1/GluN2B [1] = target: T1, rat GluN1/GluN2B (Rattus norvegicus, UniProt P35439+Q00960); assay: Two-electrode voltage-clamp recording in Xenopus laevis oocytes expressing recombinant rat GluN1/GluN2B; settings: for remaining activity at 30 µM: 30 μM test compound, current ratio, oocytes, read-out: I30 μM/Icontrol (mean ± SEM, %) GluN2B; for IC50: Tables 1 and 2, read-out: IC50 (μM) [95% Confidence Interval] GluN2B
T1 construct: expressed in transfected cells; host or cells: Xenopus laevis oocytes (cRNA injection, GluN1/GluN2 ratio 1:2)
T1 sequence (Q00960 27-1482, other chains not shown): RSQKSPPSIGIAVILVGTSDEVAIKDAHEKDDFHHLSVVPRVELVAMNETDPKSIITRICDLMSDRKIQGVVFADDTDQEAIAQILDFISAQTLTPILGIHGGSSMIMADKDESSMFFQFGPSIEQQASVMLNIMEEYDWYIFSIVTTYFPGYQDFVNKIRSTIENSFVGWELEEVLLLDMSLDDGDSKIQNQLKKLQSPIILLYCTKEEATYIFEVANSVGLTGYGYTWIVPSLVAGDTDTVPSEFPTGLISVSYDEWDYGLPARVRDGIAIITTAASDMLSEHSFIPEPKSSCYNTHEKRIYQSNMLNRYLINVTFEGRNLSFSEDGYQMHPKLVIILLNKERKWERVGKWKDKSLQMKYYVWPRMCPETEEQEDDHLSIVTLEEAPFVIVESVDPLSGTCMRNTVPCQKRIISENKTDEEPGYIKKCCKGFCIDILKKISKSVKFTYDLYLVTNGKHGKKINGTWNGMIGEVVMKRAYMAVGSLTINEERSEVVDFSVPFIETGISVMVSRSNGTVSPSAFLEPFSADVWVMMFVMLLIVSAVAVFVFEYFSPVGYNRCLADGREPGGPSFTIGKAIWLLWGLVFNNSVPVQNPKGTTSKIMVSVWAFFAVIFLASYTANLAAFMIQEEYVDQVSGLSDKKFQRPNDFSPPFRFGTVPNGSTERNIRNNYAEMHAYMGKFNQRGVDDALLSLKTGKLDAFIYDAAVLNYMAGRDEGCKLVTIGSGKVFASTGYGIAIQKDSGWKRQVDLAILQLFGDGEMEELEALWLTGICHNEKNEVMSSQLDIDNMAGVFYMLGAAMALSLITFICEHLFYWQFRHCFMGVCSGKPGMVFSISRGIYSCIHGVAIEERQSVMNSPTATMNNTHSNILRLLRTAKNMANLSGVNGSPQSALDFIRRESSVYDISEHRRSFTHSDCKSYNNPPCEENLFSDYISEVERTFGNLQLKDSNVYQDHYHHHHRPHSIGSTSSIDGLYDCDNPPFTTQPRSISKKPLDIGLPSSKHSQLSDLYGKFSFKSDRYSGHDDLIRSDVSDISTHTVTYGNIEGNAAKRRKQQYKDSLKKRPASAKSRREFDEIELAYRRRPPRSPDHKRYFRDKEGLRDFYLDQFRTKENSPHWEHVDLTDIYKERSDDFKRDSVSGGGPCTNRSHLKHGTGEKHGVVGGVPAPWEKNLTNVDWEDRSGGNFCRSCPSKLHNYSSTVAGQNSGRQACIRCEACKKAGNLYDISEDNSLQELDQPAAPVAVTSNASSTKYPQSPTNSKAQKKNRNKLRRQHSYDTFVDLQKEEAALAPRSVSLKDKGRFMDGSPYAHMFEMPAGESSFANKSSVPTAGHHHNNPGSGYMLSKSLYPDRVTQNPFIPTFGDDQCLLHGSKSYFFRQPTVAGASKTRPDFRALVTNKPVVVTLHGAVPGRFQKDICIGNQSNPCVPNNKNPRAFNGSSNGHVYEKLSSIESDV
Experimental: (§1) Two-electrode voltage-clamp recording was performed in Xenopus laevis oocytes injected with mRNA to express recombinant rat GluN1/GluN2A, GluN1/GluN2B, GluN1/GluN2C, and GluN1/GluN2D. cDNAs for rat NMDA subunits GluN1-la (GenBank U08261; hereafter GluN1), GluN2A (GenBank D13211), GluN2B (GenBank U11419), GluN2C (GenBank M91563), and GluN2D (GenBank L31611) were provided by Drs. S. Heinemann from Salk Institute, S. Nakanishi from Kyoto University, and P. Seeburg from the University of Heidelberg. An automatic injector (Nanoject II, Drummond Scientific) was used for cRNA injection using the pipettes filled with mineral oil. The cRNA that transcribed in vitro via the mMessage Machine kit (Ambion) was diluted with nuclease-free water, and then injected at a GluN1/GluN2 ratio of 1:2. The oocytes were stored in Barth's solution that contained 88 mM NaCl, 5.0 mM Tris-HCl, 2.4 mM NaHCO3, 1.0 mM KCl, 0.84 mM MgSO4, 0.41 mM CaCl2), 0.33 mM Ca(NO3)2, 0.1 mg/ml gentamycin sulfate, 1.0 U/ml penicillin, and 1 μg/ml streptomycin at pH 7.4 and temperatures of 15-17° C. for two to five days before the two-electrode voltage-clamp recordings.
(§2) During recording, the oocytes were placed in a perfusion chamber and continually washed with the recording solution containing 90 mM NaCl, 1.0 mM KCl, 0.50 mM BaCl2, 0.005 mM EDTA, and 10 mM HEPES at pH 7.4 and a temperature of 23° C. Glass electrodes with a tip resistance of 0.5 to 2.5 MΩ were obtained from thin-walled glass capillary tubes. Voltage electrodes and current electrodes were filled with 0.3 M and 3.0 M KCl, respectively. The recordings were executed with the oocytes membrane potential holding at −40 mV by an OC-725 amplifier (Warner Instrument Co.). All compounds were dissolved in dimethyl sulfoxide (DMSO) as 20 mM stock solutions and further diluted to reach the desired concentration (0.05-0.5% (vol/vol) DMSO) in recording solution comprised of 30 µM glycine and 100 µM glutamate. In general, each compound was tested in multiple oocytes. To evaluate the inhibitory efficacy of the compounds, concentration-response curves were plotted using the average two-electrode voltage-clamp recording results and fitted by the following equation:
(§3) response=100/{1+[(inhibitor concentration)/IC50]^N} • where IC50 is the concentration of compound that inhibit half maximal of the current response and N is the Hill slope.

rat GluN1/GluN2C = target: T2, rat GluN1/GluN2C (Rattus norvegicus, UniProt P35439+Q00961); assay: Two-electrode voltage-clamp recording in Xenopus laevis oocytes expressing recombinant rat GluN1/GluN2C; settings: for remaining activity at 30 µM: 30 μM test compound, current ratio, oocytes, read-out: I30 μM/Icontrol (mean ± SEM, %) GluN2C; for IC50: Tables 1 and 2, read-out: IC50 (μM) [95% Confidence Interval] GluN2C
T2 construct: expressed in transfected cells; host or cells: Xenopus laevis oocytes (cRNA injection, GluN1/GluN2 ratio 1:2)
T2 sequence (Q00961 20-1237, other chains not shown): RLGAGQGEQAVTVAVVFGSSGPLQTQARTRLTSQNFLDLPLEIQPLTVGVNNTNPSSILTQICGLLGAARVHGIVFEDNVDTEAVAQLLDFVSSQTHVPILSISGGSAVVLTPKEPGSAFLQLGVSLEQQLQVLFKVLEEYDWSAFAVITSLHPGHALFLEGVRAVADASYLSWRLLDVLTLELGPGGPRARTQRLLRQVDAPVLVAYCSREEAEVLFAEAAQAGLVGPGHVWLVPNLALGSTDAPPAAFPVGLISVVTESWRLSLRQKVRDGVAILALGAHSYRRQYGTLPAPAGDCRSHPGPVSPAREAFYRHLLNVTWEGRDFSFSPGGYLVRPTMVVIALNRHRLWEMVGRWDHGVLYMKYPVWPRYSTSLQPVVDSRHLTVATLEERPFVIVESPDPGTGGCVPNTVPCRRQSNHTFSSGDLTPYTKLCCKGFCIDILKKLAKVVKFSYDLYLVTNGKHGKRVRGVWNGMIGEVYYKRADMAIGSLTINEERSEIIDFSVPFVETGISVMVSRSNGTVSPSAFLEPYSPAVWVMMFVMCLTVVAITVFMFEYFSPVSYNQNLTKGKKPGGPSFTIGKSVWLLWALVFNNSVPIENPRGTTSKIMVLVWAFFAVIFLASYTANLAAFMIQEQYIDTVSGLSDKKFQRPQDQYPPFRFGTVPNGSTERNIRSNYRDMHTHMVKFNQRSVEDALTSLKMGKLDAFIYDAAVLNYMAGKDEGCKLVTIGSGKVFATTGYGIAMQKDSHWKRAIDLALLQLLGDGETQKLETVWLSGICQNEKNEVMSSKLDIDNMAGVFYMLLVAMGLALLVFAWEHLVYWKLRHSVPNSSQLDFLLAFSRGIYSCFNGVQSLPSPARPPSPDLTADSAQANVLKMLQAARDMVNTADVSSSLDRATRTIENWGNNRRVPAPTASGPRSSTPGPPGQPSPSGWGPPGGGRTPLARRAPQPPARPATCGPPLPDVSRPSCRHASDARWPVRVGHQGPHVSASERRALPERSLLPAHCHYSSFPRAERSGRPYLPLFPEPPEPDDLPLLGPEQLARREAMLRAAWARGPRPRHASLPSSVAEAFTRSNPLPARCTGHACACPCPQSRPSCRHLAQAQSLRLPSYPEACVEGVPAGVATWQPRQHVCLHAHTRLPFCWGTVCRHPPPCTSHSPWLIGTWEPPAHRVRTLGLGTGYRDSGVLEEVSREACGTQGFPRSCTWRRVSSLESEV
Experimental: as §1, §2, §3

rat GluN1/GluN2A = target: T3, rat GluN1/GluN2A (Rattus norvegicus, UniProt P35439+Q00959); assay: Two-electrode voltage-clamp recording in Xenopus laevis oocytes expressing recombinant rat GluN1/GluN2A; settings: for remaining activity at 30 µM: 30 μM test compound, current ratio, oocytes, read-out: I30 μM/Icontrol (mean ± SEM, %) GluN2A
T3 construct: expressed in transfected cells; host or cells: Xenopus laevis oocytes (cRNA injection, GluN1/GluN2 ratio 1:2)
Experimental: as §1, §2, §3

rat GluN1/GluN2D [2] = target: T4, rat GluN1/GluN2D (Rattus norvegicus, UniProt P35439+Q62645); assay: Two-electrode voltage-clamp recording in Xenopus laevis oocytes expressing recombinant rat GluN1/GluN2D; settings: for remaining activity at 30 µM: 30 μM test compound, current ratio, oocytes, read-out: I30 μM/Icontrol (mean ± SEM, %) GluN2D; for IC50: Tables 1 and 2, read-out: IC50 (μM) [95% Confidence Interval] GluN2D
T4 construct: expressed in transfected cells; host or cells: Xenopus laevis oocytes (cRNA injection, GluN1/GluN2 ratio 1:2)
T4 sequence (Q62645 28-1323, other chains not shown): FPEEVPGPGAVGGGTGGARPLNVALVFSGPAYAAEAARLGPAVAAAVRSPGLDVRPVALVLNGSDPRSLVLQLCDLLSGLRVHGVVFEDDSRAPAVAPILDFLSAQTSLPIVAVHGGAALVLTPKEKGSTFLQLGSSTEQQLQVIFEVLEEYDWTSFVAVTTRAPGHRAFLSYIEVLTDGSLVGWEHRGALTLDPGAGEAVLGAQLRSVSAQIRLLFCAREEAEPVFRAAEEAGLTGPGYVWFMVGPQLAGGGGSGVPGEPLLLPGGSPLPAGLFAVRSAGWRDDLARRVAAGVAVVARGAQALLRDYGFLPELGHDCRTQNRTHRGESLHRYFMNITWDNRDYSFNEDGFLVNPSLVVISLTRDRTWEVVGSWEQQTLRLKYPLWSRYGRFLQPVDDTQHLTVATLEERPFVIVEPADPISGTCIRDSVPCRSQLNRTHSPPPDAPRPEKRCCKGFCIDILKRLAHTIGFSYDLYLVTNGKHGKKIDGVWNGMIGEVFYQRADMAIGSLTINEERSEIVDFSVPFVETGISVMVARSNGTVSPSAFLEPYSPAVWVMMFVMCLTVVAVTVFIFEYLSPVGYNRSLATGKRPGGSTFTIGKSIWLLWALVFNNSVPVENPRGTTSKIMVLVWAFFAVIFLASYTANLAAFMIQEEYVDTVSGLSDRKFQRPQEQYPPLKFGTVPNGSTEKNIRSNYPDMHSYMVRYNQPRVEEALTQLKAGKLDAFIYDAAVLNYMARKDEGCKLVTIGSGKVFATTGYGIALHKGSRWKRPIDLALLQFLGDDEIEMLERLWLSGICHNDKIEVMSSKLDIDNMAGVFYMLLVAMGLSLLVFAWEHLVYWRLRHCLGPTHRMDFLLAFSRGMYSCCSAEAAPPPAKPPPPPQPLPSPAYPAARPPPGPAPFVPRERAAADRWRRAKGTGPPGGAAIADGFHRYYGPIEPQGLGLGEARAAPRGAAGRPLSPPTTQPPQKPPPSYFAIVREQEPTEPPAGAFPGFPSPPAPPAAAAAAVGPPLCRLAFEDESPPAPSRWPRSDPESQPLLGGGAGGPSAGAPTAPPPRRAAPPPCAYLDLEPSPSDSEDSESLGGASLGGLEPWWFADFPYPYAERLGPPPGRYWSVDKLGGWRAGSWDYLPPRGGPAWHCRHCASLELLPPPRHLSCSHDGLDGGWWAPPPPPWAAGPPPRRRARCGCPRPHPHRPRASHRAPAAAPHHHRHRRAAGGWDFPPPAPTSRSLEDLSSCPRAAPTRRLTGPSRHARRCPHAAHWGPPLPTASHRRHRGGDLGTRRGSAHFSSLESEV
Experimental: as §1, §2, §3

rat GluN1/GluN2D [3] = target: T5, rat GluN1/GluN2D (Rattus norvegicus, UniProt Q62645); assay: as above; settings: for Subunit Selectivity 2B IC50/2D IC50: ratio of GluN2B IC50 to GluN2D IC50
T5 construct: expressed in transfected cells; host or cells: Xenopus laevis oocytes (cRNA injection, GluN1/GluN2 ratio 1:2)
T5 sequence (Q62645 28-1323, other chains not shown): as above
Experimental: as §1, §2, §3

rat GluN1/GluN2B [4] = target: T6, rat GluN1/GluN2B (Rattus norvegicus, UniProt Q00960); assay: Two-electrode voltage-clamp recording in Xenopus laevis oocytes expressing recombinant rat GluN1/GluN2B; settings: current ratio reported for 3 μM test compound (footnote d, Table 2)
T6 construct: expressed in transfected cells; host or cells: Xenopus laevis oocytes (cRNA injection, GluN1/GluN2 ratio 1:2)
Experimental: as §1, §2, §3

remaining activity at 30 µM (rat GluN1/GluN2B [1]) [%]	IC50 (rat GluN1/GluN2B [1]) [µM]	remaining activity at 30 µM (rat GluN1/GluN2C) [%]	IC50 (rat GluN1/GluN2C) [µM]	remaining activity at 30 µM (rat GluN1/GluN2A) [%]	IC50 (rat GluN1/GluN2A; Tables 1 and 2, read-out: IC50 (μM) [95% Confidence Interval] GluN2A) [µM]	remaining activity at 30 µM (rat GluN1/GluN2D [2]) [%]	IC50 (rat GluN1/GluN2D [2]) [µM]	Subunit Selectivity 2A IC50/2D IC50 (rat GluN1/GluN2D [3]; ratio of GluN2A IC50 to GluN2D IC50)	Subunit Selectivity 2B IC50/2D IC50 (rat GluN1/GluN2D [3])	Current ratio I/Icontrol (mean ± SEM, %) GluN2B (rat GluN1/GluN2B [4])	SMILES
–	–	6.9 ± 2.5	0.32	86 ± 7.4	–	5.9 ± 2.7	0.25	–	–	88 ± 4.6^d (n = 1, 4) %	O=C(O)CC(F)(F)C(=O)N1N=C(c2c(-c3ccc(Cl)cc3)c3ccsc3[nH]c2=O)CC1c1ccc(Cl)cc1 (stereo not shown) [57(b), 4-[3-(4-Chlorophenyl)-5-[4-(4-chlorophenyl)-6-oxo-7H-thieno[2,3-b]pyridin-5-yl]-3,4-dihydropyrazol-2-yl]-3,3-difluoro-4-oxo-butanoic acid]
82 ± 1.1	–	91 ± 3.5	–	98 ± 4.1	–	74 ± 7.1	–	–	–	–	O=C(O)CC(F)(F)C(=O)N1N=C(c2cnccc2-c2ccccc2)CC1c1ccc(Cl)cc1 (stereo not shown) [Compound 15, 4-[3-(4-Chlorophenyl)-5-(4-phenyl-3-pyridyl)-3,4-dihydropyrazol-2-yl]-3,3-difluoro-4-oxo-butanoic acid]

Continued, molecule first:

SMILES	remaining activity at 30 µM (rat GluN1/GluN2B [1]) [%]	IC50 (rat GluN1/GluN2B [1]) [µM]	remaining activity at 30 µM (rat GluN1/GluN2C) [%]	IC50 (rat GluN1/GluN2C) [µM]	remaining activity at 30 µM (rat GluN1/GluN2A) [%]	IC50 (rat GluN1/GluN2A; Tables 1 and 2, read-out: IC50 (μM) [95% Confidence Interval] GluN2A) [µM]	remaining activity at 30 µM (rat GluN1/GluN2D [2]) [%]	IC50 (rat GluN1/GluN2D [2]) [µM]	Subunit Selectivity 2A IC50/2D IC50 (rat GluN1/GluN2D [3]; ratio of GluN2A IC50 to GluN2D IC50)	Subunit Selectivity 2B IC50/2D IC50 (rat GluN1/GluN2D [3])	Current ratio I/Icontrol (mean ± SEM, %) GluN2B (rat GluN1/GluN2B [4])
O=C(O)CC(F)(F)C(=O)N1N=C(c2c(-c3ccc(Br)cc3)c3ccsc3[nH]c2=O)CC1c1ccc(Cl)cc1 (stereo not shown) [57(a), 4-[5-[4-(4-Bromophenyl)-6-oxo-7H-thieno[2,3-b]pyridin-5-yl]-3-(4-chlorophenyl)-3,4-dihydropyrazol-2-yl]-3,3-difluoro-4-oxo-butanoic acid]	37.7 ± 3.5	19	22 ± 1.5	0.56	47.6 ± 5.5	11	19 ± 3	0.43	24	44	–
O=C(O)CC(F)(F)C(=O)N1N=C(c2c(-c3ccc(Cl)cc3)cc[nH]c2=O)CC1c1ccc(Cl)cc1 (stereo not shown) [Compound 28, 4-[3-(4-Chlorophenyl)-5-[4-(4-chlorophenyl)-2-oxo-1H-pyridin-3-yl]-3,4-dihydropyrazol-2-yl]-3,3-difluoro-4-oxo-butanoic acid]	96 ± 2.4	–	61 ± 1	55	104 ± 2.2	–	39 ± 1.7	20	–	–	–
O=C(O)CC(F)(F)C(=O)N1N=C(c2cnccc2-c2ccc(Cl)cc2)CC1c1ccc(Cl)cc1 (stereo not shown) [Compound 29, 4-[3-(4-Chlorophenyl)-5-[4-(4-chlorophenyl)-3-pyridyl]-3,4-dihydropyrazol-2-yl]-3,3-difluoro-4-oxo-butanoic acid]	79 ± 4.3	–	35 ± 0.84	15	74 ± 3.4	–	27 ± 2.3	12	–	–	–
Cc1cc(-c2ccc(Cl)cc2)c(C2=NN(C(=O)C(F)(F)CC(=O)O)C(c3ccc(Cl)cc3)C2)c(=O)[nH]1 (stereo not shown) [Compound 55, 4-[3-(4-Chlorophenyl)-5-[4-(4-chlorophenyl)-6-methyl-2-oxo-1H-pyridin-3-yl]-3,4-dihydropyrazol-2-yl]-3,3-difluoro-4-oxo-butanoic acid]	55 ± 3	41	29 ± 2	14	86 ± 4.4	–	26 ± 1.8	12	–	3	–
